Experimental data: US8143411B2, “Substituted 6-phenylnicotinic acids and their use” (Bayer Animal Health GmbH, priority 2007, dated 2012)
Counter-ions that a name gives are not always drawn.

What follows are molecules tested against T1, human PPARα receptor (Homo sapiens, UniProt Q07869) (assay: Cellular transactivation assay (GAL4-PPARα chimera, luciferase reporter)). Conditions: CHO cells stably expressing GAL4-PPARα chimera (human PPARα ligand binding domain) and luciferase reporter; 6 h stimulation.
T1 construct: expressed in transfected cells
T1 sequence (Q07869 167-468): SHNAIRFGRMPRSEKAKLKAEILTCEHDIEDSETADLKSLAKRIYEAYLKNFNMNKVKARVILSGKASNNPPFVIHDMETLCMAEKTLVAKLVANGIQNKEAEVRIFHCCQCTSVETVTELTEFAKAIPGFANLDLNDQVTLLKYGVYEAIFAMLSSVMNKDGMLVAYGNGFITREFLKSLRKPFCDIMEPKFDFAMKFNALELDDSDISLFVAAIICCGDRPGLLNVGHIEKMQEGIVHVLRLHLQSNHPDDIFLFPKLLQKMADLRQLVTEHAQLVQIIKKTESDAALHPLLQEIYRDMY
Type: cell-based
Text: A cellular assay is used to identify activators of the peroxisome proliferator-activated receptor alpha (PPAR-alpha).
Since mammalian cells contain different endogenous nuclear receptors which may complicate an unambiguous interpretation of the results, an established chimera system is used in which the ligand binding domain of the human PPARα receptor is fused to the DNA binding domain of the yeast transcription factor GAL4. The resulting GAL4-PPARα chimera is co-transfected and stably expressed in CHO cells having a reporter construct.
The GAL4-PPARα expression construct contains the ligand binding domain of PPARα (amino acids 167-468) which is PCR-amplified and cloned into the vector pcDNA3.1. This vector already contains the GAL4 DNA binding domain (amino acids 1-147) of the vector pFC2-dbd (Stratagene). The reporter construct, which contains five copies of the GAL4 binding site upstream of a thymidine kinase promoter, expresses firefly luciferase (Photinus pyralis) following activation and binding of GAL4-PPARα.
The day before the test, CHO (Chinese hamster ovary) cells which stably express the GAL4-PPARα chimera described above and the luciferase reporter gene construct are plated in medium (Optimem, GIBCO), 2% activated carbon-purified fetal calf serum (Hyclone), 1.35 mM sodium pyruvate (GIBCO), 0.2% sodium bicarbonate (GIBCO) with 1×10^3 cells in 96-well microtiter plates and kept in a cell incubator (96% atmospheric humidity, 5% v/v CO2, 37° C.). On the day of the test, the substances to be tested are taken up in the medium mentioned above but without added calf serum) and added to the cells. After a stimulation period of 6 h, the luciferase activity is measured using a video camera. The relative light units measured give, as a function of the substance concentration, a sigmoidal stimulation curve. The EC50 values are calculated using the computer programme GraphPad PRISM (Version 3.02).

Row | SMILES | EC50 [nM]
1 | CC(C)CCOc1nc(-c2cc(F)cc(F)c2)cc(C(F)(F)F)c1C(=O)O [Example 49, 6-(3,5-Difluorophenyl)-2-(3-methylbutoxy)-4-(trifluoromethyl)nicotinic acid] | 42
2 | CC(C)Cc1nc(-c2ccc(Cl)cc2)cc(C(F)(F)F)c1C(=O)O [Example 77, 6-(4-Chlorophenyl)-2-isobutyl-4-(trifluoromethyl)nicotinic acid sodium salt] | 13
3 | O=C(O)c1c(C(F)(F)F)cc(-c2ccc(Cl)cc2)nc1NCC1CC1 [Example 22, 6-(4-Chlorophenyl)-2-[(cyclopropylmethyl)amino]-4-(trifluoromethyl)nicotinic acid] | 100
4 | CCOc1nc(-c2ccc(C)c(F)c2)cc(C(F)(F)F)c1C(=O)O [Example 34, 2-Ethoxy-6-(3-fluoro-4-methylphenyl)-4-(trifluoromethyl)nicotinic acid] | 95
5 | Cc1ccc(-c2cc(C(F)(F)F)c(C(=O)O)c(OC(C)C3CCCCC3)n2)cc1F (centres unmarked) [Example 42, 2-(1-Cyclohexylethoxy)-6-(3-fluoro-4-methylphenyl)-4-(trifluoromethyl)nicotinic acid] | 120
6 | COCCN(C)c1nc(-c2ccc(C)c(F)c2)cc(C(F)(F)F)c1C(=O)O [Example 47, 6-(3-Fluoro-4-methylphenyl)-2-[(2-methoxyethyl)(methyl)amino]-4-(trifluoromethyl)nicotinic acid hydrochloride] | 180
7 | CC(C)(C)CCOc1nc(-c2ccc(Br)cc2)cc(C(F)(F)F)c1C(=O)O [Example 67, 6-(4-Bromophenyl)-2-(3,3-dimethylbutoxy)-4-(trifluoromethyl)nicotinic acid] | 182
8 | CCOc1cc(-c2ccc(Cl)cc2)nc(C(C)C)c1C(=O)O [Example 71, 6-(4-Chlorophenyl)-4-ethoxy-2-(1-methylethyl)nicotinic acid sodium salt] | 86
9 | Cc1ccc(-c2cc(C(F)(F)F)c(C(=O)O)c(CC(C)C)n2)cc1F [Example 2, 6-(3-Fluoro-4-methylphenyl)-2-isobutyl-4-(trifluoromethyl)nicotinic acid sodium salt] | 11
10 | CCc1nc(-c2ccc(Cl)cc2)cc(CC(C)C)c1C(=O)O [Example 51, 6-(4-Chlorophenyl)-2-ethyl-4-isobutyl-nicotinic acid] | 24
11 | Cc1ccc(-c2cc(C(F)(F)F)c(C(=O)O)c(NC(C)C)n2)cc1F [Example 7, 6-(3-Fluoro-4-methylphenyl)-2-(isopropylamino)-4-(trifluoromethyl)nicotinic acid] | 83
